Measured values: PubChem BioAssay AID1159562 (GlaxoSmithKline (GSK), 2015)
Activity calls are given as the source filed them. How the calls were made is not given here.

system: Trypanosoma brucei growth inhibition, luminescence; assay: Trypanosoma brucei growth inhibition, luminescence (AID 1159562);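 further: parasites grew with compound for 24 h before the luminescence read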

| SMILES | IC50 |
| --- | --- |
| c1ccc(CCNCc2cncc3nc(-c4cnccn4)n(C4CCCCC4)c23)cc1 | > 40 µM (inactive) |
| Cc1cccc(NS(=O)(=O)c2cnc3sc(C)cn3c2=O)c1 | > 40 µM (inactive) |
| O=C(NCCc1csc(-c2ccc(F)cc2)n1)c1ccco1 | 0.5 µM |
| COC(=O)c1ccc(-c2cnc3ccc(NCc4ccccn4)nn23)cc1 | 1 µM |
| N#Cc1ccc(Br)cc1[N+](=O)[O-] | 0.2 µM |
| COCc1cnc2c(c1SCc1c(F)cccc1Cl)c(=O)n(C)c(=O)n2C | > 40 µM (inactive) |
| O=C(O)[C@H]1C[C@@H]1c1ccc(-c2ccc(CN(CCc3ccccn3)C(=O)C3CCC3)cc2)cc1 | 0.79 µM |
| COc1ccc(C(=O)N2CCC(Nc3cccnc3)C2)c(OC)n1 (stereo not drawn) | > 40 µM (inactive) |
| OC1CCC(Nc2nccc(-c3sc(C4CCOCC4)nc3-c3ccc(F)c(F)c3)n2)CC1 (stereo not drawn) | 4 µM |
| Cc1ccc2ccc(C(Nc3ccccn3)c3cccnc3)c(O)c2n1 (stereo not drawn) | 4 µM |
| CNC(=O)C1Cc2ccccc2N1C(=O)COc1cccc(OC)c1 (stereo not drawn) | 1 µM |
| N#Cc1cc(N2CCCC2=O)ccc1Sc1ccccc1CO | 32 µM |
| COc1ccc(C)cc1-c1csc(NC(=O)C(C)n2ccnc2)n1 (stereo not drawn) | > 40 µM (inactive) |
| CN(C)c1ncc(-c2cncn2CCOc2ccc(Cl)cc2)cn1 | > 40 µM (inactive) |
| CCCc1cc(N)nc(-c2cc(CCC)cc(N)n2)c1 | 7.9 µM |
| c1cc(-c2ncc(-c3ccn[nH]3)s2)ccn1 | > 40 µM (inactive) |
| CCOc1ccc2nc(NC(=O)c3ccc([N+](=O)[O-])s3)sc2c1 | 2.5 µM |
| O=C1CN(Cc2ccco2)C2CS(=O)(=O)CC2N1c1ccc(Cl)cc1 (stereo not drawn) | 0.25 µM |
| Cc1cc(C)c(C#N)c(SCC(=O)c2ccc3c(c2)OCO3)n1 | 16 µM |
| c1ccc(-c2nc(NC3CCCC3)c3ccccc3n2)nc1 | 6.3 µM |
| CN(C)S(=O)(=O)c1ccc(Cl)c(C(=O)Nc2nc(-c3ccccn3)cs2)c1 | 0.4 µM |
| O=C(NCCNc1noc(-c2ccc([N+](=O)[O-])cc2)n1)c1ccc(Cl)cc1 | > 40 µM (inactive) |

| SMILES | IC50 |
| --- | --- |
| O=C(NCc1ccc(-n2cccc2)cc1)c1nc(Cn2ccc([N+](=O)[O-])n2)no1 | > 40 µM (inactive) |
| Cc1nc2c(-c3nc(-c4ccc(N)cc4)n[nH]3)cccn2c1C | 25 µM |
| CN(C)CCN(C)Cc1ccc(Cl)cc1NS(=O)(=O)c1ccc(Cl)c(Cl)c1 | 4 µM |
| COc1ccc(C2=NCC(CSc3nnc(-c4ccc5c(c4)OCO5)o3)S2)cc1 (stereo not drawn) | > 40 µM (inactive) |
| O=C(NCCc1ccn(-c2ccccc2)n1)C1CCCCC1 | 0.32 µM |
| Cc1cccc(NS(=O)(=O)c2ccc3c(c2)C(=O)c2cc(S(=O)(=O)Nc4cccc(C)c4C)ccc2-3)c1C | 10 µM |
| O=C(Nc1ccc(Br)cn1)c1ccc(Cn2cnc([N+](=O)[O-])n2)cc1 | 3.2 µM |
| O=c1cc(NCCCNCc2cc(C(F)(F)F)cs2)[nH]c2ccccc12 | 0.4 µM |
| c1ccc(Nc2nc(-c3ccccn3)cc(N3CCOCC3)n2)cc1 | 13 µM |
| CN(Cc1ccccc1)Cc1nnnn1C1CCN(Cc2ccc(-n3ccnc3)cc2)CC1 | > 40 µM (inactive) |
| O=C(NCc1ccc(Cl)cc1)C1CN(C(=O)c2ccc(F)cc2)CCS1 (stereo not drawn) | 0.63 µM |
| COc1ccc(C2CC(c3ccc(NS(C)(=O)=O)cc3)=NN2C(=O)c2cccs2)cc1OC (stereo not drawn) | 25 µM |
| COc1ccccc1CNc1cc(C2CC2)nc(-c2nccn2C)n1 | 2 µM |
| Clc1ccc(CN2CCN(C3=NCCN3)CC2)cc1Cl | > 40 µM (inactive) |
| COc1ccc(-c2cnc(C)o2)cc1S(=O)(=O)Nc1ccc(C)cc1C | 32 µM |
| O=C(c1cccc(Nc2ncc(-c3ccc4c(c3)OCO4)cn2)c1)N1CCOCC1 | > 50 µM (inactive) |
| CCN(CC)c1nc(Nc2ccncc2)nc2ccccc12 | 5 µM |
| CNc1c(C(N)=O)c(-c2ccc3scnc3c2)nn1CC(F)(F)F | > 40 µM (inactive) |
| CN(Cc1nc2ccccc2s1)C(=O)C=Cc1cc2ccccc2o1 | > 40 µM (inactive) |
| CC1(C)CCC(=Cc2ccc(Cl)cc2)CC1(O)Cn1ccnc1 (stereo not drawn) | 25 µM |
| O=C(COc1nn(-c2ccccc2)c2ncccc12)NCc1ccccc1 | > 40 µM (inactive) |
